In brackets after ≈: the same amount, converted by molar mass.
Experiments:
[1] = system: B. fragilis MZ-R ATCC 11295; assay: MIC/MBC against Bacteroides fragilis strain D; format: cell-based; settings: for MBC: ATCC11295, 99.9% reduction in viable count; for MIC: ATCC11295, 48 h, 48 hours, 37° C., anaerobic
Protocol: (§1) The screening panel utilized in this Example consisted of 5 strains of Bacteroides fragilis. All assays were carried out in 96-well microtitre plates. If an isolate was obtained from either a culture collection or clinical source, the isolate was immediately inoculated into Wilkens-Chalgren broth (Oxoid) and incubated at 37° C. in an anaerobic chamber in an atmosphere of 85% nitrogen, 10% carbon dioxide, and 5% hydrogen for 48 hours. At the end of this time, the viable count was about 10^12 organisms/ml broth. A 1 ml aliquot of each culture was placed in an ampoule and quick frozen in acetone-dry ice mixture and stored in liquid nitrogen. When an inoculum was utilized in an assay, one of the ampoules was thawed and diluted with fresh broth to yield a suspension having a count of 5×10^5 organisms/ml. A 100 μl aliquot of this suspension was inoculated into each well of the microtitre plate. A 2 mg sample of the test compound was dissolved in 0.2 ml of a suitable solvent such as dimethylsulfoxide, polyethylene glycol 200 or methanol. […] After addition of the test solution the final inoculum level was 10^5 cells/ml. The plates were incubated for 48 hours at 37° C. in the anaerobic chamber. The Minimum Inhibitory Concentration (MIC) was read visually. The MIC is defined as the lowest concentration at which there is no detectable growth. The Minimum Bactericidal Concentration (MBC) was determined by taking 50 μl aliquot from each well and placing it in fresh medium.

[2] = system: Clostridium perfringens NCTC 523; assay: microbe, parasite or virus in culture; format: cell-based; settings: Clostridium perfringens, NCTC523, Clostridium perfringens NCTC 523; procedures of Example 40
[3] = system: Clostridium perfringens NCTC 8237; assay: microbe, parasite or virus in culture; format: cell-based; settings: Clostridium perfringens, NCTC8237, Clostridium perfringens NCTC 8237; procedures of Example 40
[4] = system: Campylobacter fetus ss. jejuni NCTC 10842; assay: MIC vs panel of anaerobes; format: cell-based; settings: NCTC10842, procedures of Example 40
[5] = system: Costridium difficile NCIB 10666; assay: MIC vs panel of anaerobes; format: cell-based, C. difficile; settings: Clostridioides difficile, NCIB10666, C. difficile NCIB 10666; procedures of Example 40; read-out: MIC
[6] = system: B. fragilis WS-1; assay: MIC/MBC against Bacteroides fragilis strain E; format: cell-based; settings: for MBC: WS1, 99.9% reduction in viable count; for MIC: WS1, 48 h, 48 hours, 37° C., anaerobic
Protocol: as §1, with “medium. […] The strains of Bacteroides fragilis utilized in the above procedure are identified by letter in accordance with the following legend: |E B. fragilis WS-1*” for “medium.”

[7] = system: B. fragilis NCTC 9344; assay: MIC/MBC against Bacteroides fragilis strain C; format: cell-based; settings: for MBC: NCTC9344, 99.9% reduction in viable count; for MIC: NCTC9344, 48 h, 48 hours, 37° C., anaerobic
Protocol: as §1, with “medium. […] The strains of Bacteroides fragilis utilized in the above procedure are identified by letter in accordance with the following legend: |C B. fragilis NCTC 9344” for “medium.”

[8] = system: Fusobacterium necrophorum ATCC 11295; assay: MIC vs panel of anaerobes; format: cell-based; settings: Fusobacterium necrophorum, ATCC11295, Fusobacterium necrophorum ATCC 11295; procedures of Example 40; read-out: MIC

SMILES | MBC [1] [µg/mL] | MIC [1] [µg/mL] | MIC [2] [µg/mL] | MIC [3] [µg/mL] | MIC [4] [µg/mL] | MIC [5] [µg/mL] | MBC [6] [µg/mL] | MIC [6] [µg/mL] | MBC [7] [µg/mL] | MIC [7] [µg/mL] | MIC [8] [µg/mL]
CCC1(C)CN=C2C(c3ccccc3)=[N+]([O-])c3cccnc3N2C1 (centres unmarked) [Example 24, 2,3-Dihydro-2-ethyl-2-methyl-5-phenyl-1H-pyrimido[1,2-a]pyrido[3,2-e]pyrazine 6-oxide] | < 0.8 | < 0.8 | 1.5 (≈ 4.68 µM) | 6.2 (≈ 19.4 µM) | 100 (≈ 312 µM) | < 0.8 | < 0.8 | < 0.8 | < 0.8 | < 0.8 | < 0.8
CCC1(CC)CN=C2C(c3ccccc3)=[N+]([O-])c3cccnc3N2C1 [Example 26, 2,3-Dihydro-2,2-diethyl-5-phenyl-1H-pyrimido[1,2-a]pyrido[3,2-e]pyrazine 6-oxide] | < 0.8 | < 0.8 | 1.5 (≈ 4.49 µM) | 1.5 (≈ 4.49 µM) | 25 (≈ 74.8 µM) | < 0.8 | < 0.8 | < 0.8 | < 0.8 | < 0.8 | 1.5 (≈ 4.49 µM)
CCC1(C)CN=C2C(c3ccccc3)=[N+]([O-])c3cnccc3N2C1 (centres unmarked) [Example 23, 2,3-Dihydro-2-ethyl-2-methyl-5-phenyl-1H-pyrimido[1,2-a]pyrido[3,4-e]pyrazine 6-oxide] | < 0.8 | < 0.8 | 1.5 (≈ 4.68 µM) | 6.2 (≈ 19.4 µM) | 100 (≈ 312 µM) | 1.5 (≈ 4.68 µM) | 3.1 (≈ 9.68 µM) | 1.5 (≈ 4.68 µM) | < 0.8 | < 0.8 | < 0.8
[O-][N+]1=C(c2ccccc2)C2=NCC3(CCCCC3)CN2c2ccncc21 [Example 30, Spiro[cyclohexane-1,2'-[2,3]-dihydro-[5]-phenyl-[1H]pyrimido[1,2-a]pyrido[3,4-e]pyrazine [6]-oxide]] | < 0.8 | < 0.8 | 6.2 (≈ 17.9 µM) | 12.5 (≈ 36.1 µM) | 100 (≈ 289 µM) | < 0.8 | < 0.8 | < 0.8 | < 0.8 | < 0.8 | 3.1 (≈ 8.95 µM)
CCC1(CC)CN=C2C(c3ccccc3)=[N+]([O-])c3cnccc3N2C1 [Example 25, 2,3-Dihydro-2,2-diethyl-5-phenyl-1H-pyrimido[1,2-a]pyrido[3,4-e]pyrazine 6-oxide] | 1.5 (≈ 4.49 µM) | 1.5 (≈ 4.49 µM) | 3.1 (≈ 9.27 µM) | 3.1 (≈ 9.27 µM) | 6.2 (≈ 18.5 µM) | 1.5 (≈ 4.49 µM) | < 0.8 | < 0.8 | 1.5 (≈ 4.49 µM) | 1.5 (≈ 4.49 µM) | 31 (≈ 92.7 µM)
CC1(C)CN=C2C(c3ccc(Cl)cc3)=[N+]([O-])c3cnccc3N2C1 [Example 17, 2,3-Dihydro-5-(4-chlorophenyl)-2,2-dimethyl-1H-pyrimido[1,2-a]pyrido[3,4-e]pyrazine 6-oxide] | < 0.8 | < 0.8 | < 0.8 | 6.2 (≈ 18.2 µM) | 50 (≈ 147 µM) | < 0.8 | < 0.8 | < 0.8 | < 0.8 | < 0.8 | 3.1 (≈ 9.1 µM)
Cc1ccc(C2=[N+]([O-])c3cccnc3N3CC(C)(C)CN=C23)cc1 [Example 20, 2,3-Dihydro-2,2-dimethyl-5-(4-methylphenyl)-1H-pyrimido[1,2-a]pyrido[3,2-e]pyrazine 6-oxide] | < 0.8 | < 0.8 | 1.5 (≈ 4.68 µM) | 1.5 (≈ 4.68 µM) | 6.2 (≈ 19.4 µM) | < 0.8 | < 0.8 | 1.5 (≈ 4.68 µM) | 1.5 (≈ 4.68 µM) | 1.5 (≈ 4.68 µM) | 1.5 (≈ 4.68 µM)
